Source: US9643946B2, “Tricyclic compound and use thereof” (SK CHEMICALS CO., LTD., priority 2013, dated 2017)

How the values were obtained:
human GPR40 protein = human GPR40 protein (Homo sapiens, UniProt O14842); experiment: GPR40 agonist binding inhibition (displacement of 3H-labeled propanoic acid radioligand); settings: membrane protein including human GPR40, 3H-labeled propanoic acid radioligand, 25° C., 2 hours; read-out: Half maximal inhibitory concentration
Procedure: Measurement of 50% Inhibitory Concentration (ID50) for GPR40 Agonist Binding
To examine the efficacy of the compounds according to one exemplary embodiment of the present invention in modulating GPR40, the half maximal inhibitory concentrations (IC50) of the compounds according to one exemplary embodiment of the present invention were measured by Microbeta2™ (PerkinElmer Inc.) using a change in radiation dose emitted from ^3H-labeled propanoic acid (i.e., 3-(4-((2,6′-dimethyl-6-((4-(^3H))-phenylmethoxy)biphenyl-3-yl)methoxy)phenyl)propanoic acid), which is a radioactive isotope which binds to a human GPR40 protein, as an indicator.
Specifically, a test compound was prepared by serial dilution with DMSO, and 100 μL of a binding buffer (including 25 mM HEPES (pH 7.5), 5 mM MgCl2, 100 mM NaCl, and 0.1% free fatty acid BSA; Sigma-Aldrich Corp.) was put into each well of a 96-well transparent plate. Thereafter, each of the diluted compound, propanoic acid which was prepared by dissolving propanoic acid in DMSO to a concentration of 500 mM and not labeled with a radioactive isotope, and DMSO was dispensed at 5 μL per well. ^3H-labeled propanoic acid was dissolved in a binding buffer at a concentration of 1 nM and dispensed at 50 μL into the corresponding wells, and a membrane protein including a human GPR40 protein was dissolved in a binding buffer at a concentration of 20 μg/well and dispensed at 100 μL, into the corresponding wells.
After the dispensation was completed, the plate was incubated at a temperature of 25° C. and a rotary speed of 230 rpm for 2 hours while shaking. A human GPR40 complex was transferred to Filtermat A (PerkinElmer Inc.) using a cell harvester (PerkinElmer Inc.), washed 10 times with 50 mM tris-HCl, dried, and then scintillated using Meltilex (PerkinElmer Inc.). Thereafter, an emitted radiation dose was measured using Microbeta2™. The radiation doses emitted from the complex in the well containing 10 mM unlabeled propanoic acid and the complex in the well containing DMSO alone were set as 0% and 100%, respectively. Thus, a change curve for each of the radiation doses was plotted to calculate the half maximal inhibitory concentration of the test compound.

male ZFDM rats = experiment: Hypoglycemic rate after oral glucose loading in rats; type: in vivo, rat; settings: oral 0.1 to 30 mg/kg one hour before glucose loading (1.5 g/kg), blood glucose AUC 0 to 120 minutes versus control
Procedure: Measurement of Hypoglycemic Rate in Rats
An effect of the compound according to one exemplary embodiment of the present invention on blood glucose inhibition after glucose loading was examined in male ZFDM rats (Japan SLC, Inc.).
Specifically, male ZFDM rats (7 week-old) pre-fed for a week were fasted overnight, and used as an animal to be tested. A test compound was prepared into a 0.5% methylcellulose suspension, which was orally administered to rats at a dose of 0.1 to 30 mg/kg before an hour of glucose loading (1.5 g/kg). As the control, 0.5% methylcellulose was administered. After the glucose administration, blood was drawn from the rats' tails after 0, 15, 30, 60 and 120 minutes to measure a blood glucose level. The area under the curve (AUC) for compound treatment was calculated using a blood glucose change profile from t=0 to 120 minutes, and a hypoglycemic rate (%) for the control was calculated.

human GPR40 protein, sequence (O14842 whole entry): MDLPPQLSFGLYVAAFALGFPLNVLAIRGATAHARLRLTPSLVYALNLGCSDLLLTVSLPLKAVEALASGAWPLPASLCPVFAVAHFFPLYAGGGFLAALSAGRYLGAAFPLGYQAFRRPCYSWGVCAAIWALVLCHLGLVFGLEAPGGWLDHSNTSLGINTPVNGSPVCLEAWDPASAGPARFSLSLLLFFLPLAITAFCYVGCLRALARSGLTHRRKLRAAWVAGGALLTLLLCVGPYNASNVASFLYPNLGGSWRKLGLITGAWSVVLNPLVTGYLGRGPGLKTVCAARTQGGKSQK

Row | Structure (SMILES) | IC50 (human GPR40 protein) [nM] | Hypoglycemic rate (male ZFDM rats) [%]
1 | Cc1cc(OCCCS(C)(=O)=O)cc2c1-c1cccc(COc3ccc4c(c3)OC[C@H]4CC(=O)O)c1CCC2 [Example 1, 2-((3S)-6-((11-methyl-9-(3-(methylsulfonyl)propoxy)-6,7-dihydro-5H-dibenzo[a,c][7]annulen-4-yl)methoxy)-2,3-dihydrobenzofuran-3-yl)acetic acid] | 158 | 
2 | CS(=O)(=O)CCCOc1ccc2c(c1)COCc1ccc(CNc3ccc([C@H]4C[C@@H]4C(=O)O)cc3)cc1-2 [Example 18, (1S,2S)-2-(4-(((9-(3-(methylsulfonyl)propoxy)-5,7-dihydrodibenzo[c,e]oxepin-2-yl)methyl)amino)phenyl)cyclopropanecarboxylic acid] | 752 | 
3 | CS(=O)(=O)CCCOc1ccc2c(c1)CCCc1ccc(COc3ccc([C@H]4C[C@@H]4C(=O)O)cc3)cc1-2 [Example 25, (1S,2S)-2-(4-((9-(3-(methylsulfonyl)propoxy)-6,7-dihydro-5H-dibenzo[a,c][7]annulen-2-yl)methoxy)phenyl)cyclopropanecarboxylic acid] | 103 | 
4 | Cc1cc(OCCCS(C)(=O)=O)cc2c1-c1cc(COc3ccc4c(c3)OC[C@H]4CC(=O)O)ccc1OC2 [Example 26, (S)-2-(6-((10-methyl-8-(3-(methylsulfonyl)propoxy)-6H-benzo[c]chromen-2-yl)methoxy)-2,3-dihydrobenzofuran-3-yl)acetic acid] |  | 31.0
5 | CCS(=O)(=O)CCCOc1cc(C)c2c(c1)CCOc1ccc(COc3ccc([C@H]4C[C@@H]4C(=O)O)c(F)c3)cc1-2 [Example 41, (1S,2S)-2-(4-((9-(3-(ethylsulfonyl)propoxy)-11-methyl-6,7-dihydrodibenzo[b,d]oxepin-2-yl)methoxy)-2-fluorophenyl)cyclopropanecarboxylic acid] | 125 | 
6 | CCN1CCc2cc(OCCCS(C)(=O)=O)ccc2-c2cc(COc3ccc4c(c3)OC[C@H]4CC(=O)O)ccc21 [Example 44, (S)-2-(6-((5-ethyl-9-(3-(methylsulfonyl)propoxy)-6,7-dihydro-5H-dibenzo[b,d]azepin-2-yl)methoxy)-2,3-dihydrobenzofuran-3-yl)acetic acid] | 75.7 | 
7 | Cc1cc(OCC2CCS(=O)(=O)CC2)cc2c1-c1cc(COc3ccc4c(c3)OC[C@H]4CC(=O)O)ccc1OCC2 [Example 47, 2-((3S)-6-((9-((1,1-dioxidotetrahydro-2H-thiopyran-4-yl)methoxy)-11-methyl-6,7-dihydrodibenzo[b,d]oxepin-2-yl)methoxy)-2,3-dihydrobenzofuran-3-yl)acetic acid] | 53.1 | 
8 | CCS(=O)(=O)CCCOc1cc(C)c2c(c1)CCCc1ccc(COc3ccc4c(c3)OC[C@H]4CC(=O)O)cc1-2 [Example 57, 2-((3S)-6-((9-(3-(ethylsulfonyl)propoxy)-11-methyl-6,7-dihydro-5H-dibenzo[a,c][7]annulen-2-yl)methoxy)-2,3-dihydrobenzofuran-3-yl)acetic acid] |  | 21.7
9 | Cc1cc(OC2CCS(=O)(=O)CC2)cc2c1-c1cc(COc3ccc([C@H]4C[C@@H]4C(=O)O)cc3)ccc1CCC2 [Example 59, (1S,2S)-2-(4-((9-((1,1-dioxidotetrahydro-2H-thiopyran-4-yl)oxy)-11-methyl-6,7-dihydro-5H-dibenzo[a,c][7]annulen-2-yl)methoxy)phenyl)cyclopropanecarboxylic acid] | 71 | 
10 | O=C(O)C[C@@H]1COc2cc(OCc3ccc4c(c3)-c3ccc(OCC5(O)CCS(=O)(=O)CC5)cc3CCC4)ccc21 [Example 65, (S)-2-(6-((9-((4-hydroxy-1,1-dioxidotetrahydro-2H-thiopyran-4-yl)methoxy)-6,7-dihydro-5H-dibenzo[a,c][7]annulen-2-yl)methoxy)-2,3-dihydrobenzofuran-3-yl)acetic acid] | 160 | 
11 | O=C(O)[C@H]1C[C@@H]1c1ccc(NCc2ccc3c(c2)-c2ccc(OCC4CCS(=O)(=O)CC4)cc2CCC3)cc1 [Example 78, (1S,2S)-2-(4-(((9-((1,1-dioxidotetrahydro-2H-thiopyran-4-yl)methoxy)-6,7-dihydro-5H-dibenzo[a,c][7]annulen-2-yl)methyl)amino)phenyl)cyclopropanecarboxylic acid] |  | 27.4
12 | C[C@@H]1Cc2cc(OCCCS(C)(=O)=O)ccc2-c2cc(COc3ccc4c(c3)OC[C@H]4CC(=O)O)ccc2O1 [Example 79, 2-((S)-6-(((R)-6-methyl-9-(3-(methylsulfonyl)propoxy)-6,7-dihydrodibenzo[b,d]oxepin-2-yl)methoxy)-2,3-dihydrobenzofuran-3-yl)acetic acid] | 84.4 | 
13 | Cc1nc(N2CCOCC2)nc2c1-c1cc(COc3ccc4c(c3)OC[C@H]4CC(=O)O)ccc1CCC2 [Example 81, 2-((3S)-6-((1-methyl-3-morpholino-6,7-dihydro-5H-benzo[3,4]cyclohepta[1,2-d]pyrimidin-10-yl)methoxy)-2,3-dihydrobenzofuran-3-yl)acetic acid] | 181 | 
14 | CC1(COc2ccc3c(c2)CCCc2ccc(COc4ccc5c(c4)OC[C@H]5CC(=O)O)cc2-3)CCS(=O)(=O)CC1 [Example 93, (S)-2-(6-((9-((4-methyl-1,1-dioxidotetrahydro-2H-thiopyran-4-yl)methoxy)-6,7-dihydro-5H-dibenzo[a,c][7]annulen-2-yl)methoxy)-2,3-dihydrobenzofuran-3-yl)acetic acid] | 50.5 | 

The next lines start with results.

Row | IC50 (human GPR40 protein) [nM] | Structure (SMILES) | Hypoglycemic rate (male ZFDM rats) [%]
15 | 17.7 | Cc1cc(OCCCS(C)(=O)=O)cc2c1-c1cc(COc3ccc4c(c3)OC[C@H]4CC(=O)O)ccc1OCC2 [Example 14, 2-((3S)-6-((11-methyl-9-(3-(methylsulfonyl)propoxy)-6,7-dihydrodibenzo[b,d]oxepin-2-yl)methoxy)-2,3-dihydrobenzofuran-3-yl)acetic acid] | 
16 | 45.7 | Cc1cc(OCCCS(C)(=O)=O)cc2c1-c1cc(COc3ccc([C@H]4C[C@@H]4C(=O)O)cc3)ccc1CC2 [Example 31, (1S,2S)-2-(4-((5-methyl-7-(3-(methylsulfonyl)propoxy)-9,10-dihydrophenanthren-3-yl)methoxy)phenyl)cyclopropanecarboxylic acid] | 
17 | 39.1 | CCS(=O)(=O)CCCOc1cc(C)c2c(c1)CCOc1ccc(COc3ccc4c(c3)OC[C@H]4CC(=O)O)cc1-2 [Example 38, 2-((3S)-6-((9-(3-(ethylsulfonyl)propoxy)-11-methyl-6,7-dihydrodibenzo[b,d]oxepin-2-yl)methoxy)-2,3-dihydrobenzofuran-3-yl)acetic acid] | 
18 | 26.6 | CCS(=O)(=O)CCCOc1cc(C)c2c(c1)CCCc1ccc(COc3ccc([C@H]4C[C@@H]4C(=O)O)cc3)cc1-2 [Example 61, (1S,2S)-2-(4-((9-(3-(ethylsulfonyl)propoxy)-11-methyl-6,7-dihydro-5H-dibenzo[a,c][7]annulen-2-yl)methoxy)phenyl)cyclopropanecarboxylic acid] | 
19 | 14.7 | Cc1cc(OC2CCS(=O)(=O)CC2)cc2c1-c1cc(CNc3ccc([C@H]4C[C@@H]4C(=O)O)cc3)ccc1CCC2 [Example 76, (1S,2S)-2-(4-(((9-((1,1-dioxidotetrahydro-2H-thiopyran-4-yl)oxy)-11-methyl-6,7-dihydro-5H-dibenzo[a,c][7]annulen-2-yl)methyl)amino)phenyl)cyclopropanecarboxylic acid] | 
20 | 16.2 | CCS(=O)(=O)CCCOc1ccc2c(c1)CCCc1cc(F)c(CNc3ccc([C@H]4C[C@@H]4C(=O)O)cc3)cc1-2 [Example 105, (1S,2S)-2-(4-(((9-(3-(ethylsulfonyl)propoxy)-3-fluoro-6,7-dihydro-5H-dibenzo[a,c][7]annulen-2-yl)methyl)amino)phenyl)cyclopropanecarboxylic acid] | 
21 | 5.6 | CC#C[C@@H](CC(=O)O)c1ccc(OCc2ccc3c(c2)-c2ccc(OCC4CCS(=O)(=O)CC4)cc2CCC3)cc1 [Example 109, (S)-3-(4-((9-((1,1-dioxidotetrahydro-2H-thiopyran-4-yl)methoxy)-6,7-dihydro-5H-dibenzo[a,c][7]annulen-2-yl)methoxy)phenyl)hex-4-ynoic acid] | 
